Test results: patent US5239110A, “Phenylcyclohexanol derivatives as agents for treating CNS disorders” (Sterling Winthrop, Inc., priority 1992, dated 1993)

System: sigma receptors
Assay: sigma receptor binding, [3H]di(2-tolyl)guanidine (DTG) assay
Parameters: species or system guinea pig (male Hartley), brain tissue
Conditions: [3H]DTG approx. 4 nM, 25° C., 90 min, guinea pig brain membranes; for Ki: pH 7.4
Method: Brain tissue was prepared from male Hartley guinea pigs (Hazelton Labs, Denver, PA) which were anesthetized with CO2 and sacrificed by decapitation. All animal care and use procedures were in accord with the "Guide for the Care and Use of Laboratory Animals" (NIH Publ. No. 86-23, 20 1985). Homogenization was performed in 10 volumes (wt/vol) of 0.32 M sucrose with a Brinkmann Polytron at setting 5, 30 sec. The homogenate was centrifuged at 900×g for 10 min at 4° C., and the supernatant was collected and centrifuged at 22,000×g for 20 min at 4° C. The pellet was resuspended in 10 volumes of Tris-HCl buffer (50 mM, pH 7.4), incubated at 37° C. for 30 min and centrifuged at 22,000×g for 20 min at 4° C. Following this, the pellet was resuspended in Tris buffer and frozen in 5-10 mL aliquots corresponding to a tissue concentration of 100 mg/mL at -70° C. Binding characteristics of the membranes were stable for at least one month when stored at -70° C.
On the day of the assay, membrane aliquots were thawed, resuspended in fresh Tris buffer and stored on ice until use. Each assay tube contained 100 μL of [3H](+)pentazocine at a final concentration of approximately 0.5 nM, [3H]di(2-tolyl)guanidine (DTG) at a final concentration of approximately 4 nM, 100 μL of various concentrations of the compounds of interest, 500 μL of the tissue suspension and 300 μL of buffer to a final assay volume of 1 mL and a final tissue concentration of approximately 8 mg/tube, corresponding to approximately 0.15 mg protein/tube. Nonspecific binding was defined by addition of a final concentration of 1 μM haloperidol to blank tubes for [^3 H]+pentazocine assay or by addition of a final concentration of 10 μM haloperidol to blank tubes for [^3 H]DTG assay. All tubes were incubated at 37° C. for 150 minutes ([^3 H]+pentazocine) or at 25° C. for 90 min ([3H]DTG) before termination of the reaction by filtration over Whatman GF/B glass fiber filters that were presoaked in a solution of 0.5% polyethyleneimine for at least 1 hr prior to use. Filters were washed with three 4 mL volumes of cold Tris-HCl buffer.
Following addition of scintillation cocktail, samples were allowed to equilibrate for at least 4 hr. The amount of bound radioactivity was determined by liquid scintillation spectrometry using a Beckman LS 5000 TA liquid scintillation counter with an efficiency for tritium of approximately 60%.
Data obtained on the compounds in the di(2-tolyl)guanidine (DTG) and d-pentazocine (+pent) assays, expressed as a Ki value in nM or % inhibition at 10 nM, are as follows: […]

Row | SMILES | DTG % inhib (10 nM) (at 10 nM) [%] | Ki [µM]
1 | CN(C)C1CCC(O)(c2ccccc2)CC1 (stereo not shown) [Example 1, 4-(Dimethylamino)-1-phenylcyclohexanol] | 61 | –
2 | CC(=O)O[C@]1(c2ccccc2)CC[C@H](N(C)C)CC1 [Example 2, cis-4-(dimethylamino)-1-phenylcyclohexylacetate] | – | 5
3 | CCC(=O)O[C@]1(c2ccccc2)CC[C@H](N(C)C)CC1 [Example 3, cis-4-(dimethylamino)-1-phenylcyclohexyl propionate] | – | 0.288
4 | CCC(=O)O[C@]1(c2ccccc2)CC[C@@H](N(C)C)CC1 [Example 4, trans-4(dimethylamino)-1-phenylcyclohexyl propionate] | – | 4.08
